Literature values, collected in patent publication US20090252806A1, “NANOPARTICULATE TACROLIMUS FORMULATIONS” (Elan Pharma International Ltd., priority 2004, published 2009).
Read-outs that look alike come from different tables or passages of the source.

Columns and labels:
[1] = 18 fasted healthy volunteers; single oral dose of 3 mg, 7 mg, and 10 mg
[2] = U.S. study; average (range)
[3] = oral
[4] = for reduction of mean AUC relative to the fasted condition / reduction of mean Cmax relative to the fasted condition: healthy volunteers (N=16)
[5] = 15 minutes after a high fat (400 kcal, 34% fat) breakfast, 11 liver transplant patients
[6] = administered 1.5 hours following the meal
[7] = given immediately following the meal

C=CC[C@@H]1/C=C(\C)C[C@H](C)C[C@H](OC)[C@H]2O[C@@](O)(C(=O)C(=O)N3CCCC[C@H]3C(=O)O[C@H](/C(C)=C/[C@@H]3CC[C@@H](O)[C@H](OC)C3)[C@H](C)[C@@H](O)CC1=O)[C@H](C)C[C@@H]2OC [tacrolimus, Tacrolimus]
solubility (in chloroform): very soluble | solubility (in ethanol): freely soluble | solubility (in methanol): very soluble | solubility (in water): practically insoluble | increase of Cmax and AUC with dose [1]: dose-proportional | ratio of whole blood concentration to plasma concentration [2]: 35 (range 12 to 67) | absolute bioavailability ([3]; adult kidney transplant patients (N=26)): 17±10% | absolute bioavailability ([3]; adult liver transplant patients (N=17)): 22±6% | decreased AUC as compared to a fasted state [4, 5]: 27±18% | decreased Cmax as compared to a fasted state [4, 5]: 50±19% | reduction of mean AUC relative to the fasted condition [4, 6]: 39% | reduction of mean Cmax relative to the fasted condition [4, 6]: 63% | reduction of mean AUC relative to the fasted condition [4, 7]: 39% | reduction of mean Cmax relative to the fasted condition [4, 7]: 71% | lengthening of Tmax ([4]; high-fat meal (848 kcal, 46% fat), 15 healthy volunteers): 5 fold
